Data set [1] in a line: MTT assay for cell viability (cytotoxicity). It is filed as cell-based, human. To be noted: human; HepG2 cells, 48 h incubation, MTT. As for the experimental part: The hepatocyte cell line HepG2 cells obtained from the Type Culture Collection of the Chinese Academy of Sciences (Shanghai, China) were maintained in high-glucose DMEM (Gibco) supplemented with 10% fetal bovine serum (FBS) and 1% penicillin-streptomycin in an atmosphere of 5% CO2 at 37 °C.
Into a 96-well plate, 1 × 10^3 HepG2 cells per well were seeded. After 24 h, stock solutions of test compounds in DMSO were diluted in DMEM to ≤0.1% final DMSO concentration. Cells were treated with various concentrations (2.5–25 µM) of tested compounds for 48 h, and the MTT solution (0.5 mg/mL) was added. After 4 h of incubation at 37 °C for MTT-formazan formation, the supernatant was discarded and 100 µL of DMSO was applied into each well to dissolve formazan crystals. Absorbance at 490 nm was determined spectrophotometrically by using a microplate reader (Epoch, BioTek Instruments, Inc., Winooski, VT, USA).
(In general: Tetrazolium assays rely on reduction of a dye to a coloured formazan, in cell work by metabolically active cells.)

Here are results for 13 compounds from paper PMC7998309, “Structural-Based Optimizations of the Marine-Originated Meridianin C as Glucose Uptake Agents by Inhibiting GSK-3β” (Marine Drugs, 2021).

Molecules are shown by their SMILES.

In general, CC50 refers to the concentration giving 50% cytotoxicity. A lower CC50 goes with harm at low concentration. Usually melting point stands for the temperature of the solid-liquid transition. Compound `CCC(=O)Nc1ccc(-c2cnc(N)nc2-c2c[nH]c3ccc(Br)cc23)cc1` [A1, N-(4-(2-amino-4-(5-bromo-1H-indol-3-yl)pyrimidin-5-yl)phenyl) Propionamide] came in with a melting point of 193.6 to 194.2 °C. Also, half-maximal cytotoxicity in data set [1] (CC50 at 48 h) was put at 16.7 µM.

Regarding `CCCC(=O)Nc1ccc(-c2cnc(N)nc2-c2c[nH]c3ccc(Br)cc23)cc1` [A2, N-(4-(2-amino-4-(5-bromo-1H-indol-3-yl)pyrimidin-5-yl)phenyl) Butyramide], the melting point lay in the range of 187.6 to 188.3 °C. The same compound showed a CC50 at 48 h in data set [1] of over 25 µM.

`CC(C)C(=O)Nc1ccc(-c2cnc(N)nc2-c2c[nH]c3ccc(Br)cc23)cc1` [A3, N-(4-(2-amino-4-(5-bromo-1H-indol-3-yl)pyrimidin-5-yl)phenyl) Isobutyramide] gave a melting point of 172.6 to 173.3 °C. Further, half-maximal cytotoxicity in data set [1] (CC50 at 48 h) was put at 10.8 µM.

Regarding `CC(C)(C)C(=O)Nc1ccc(-c2cnc(N)nc2-c2c[nH]c3ccc(Br)cc23)cc1` [A4, N-(4-(2-amino-4-(5-bromo-1H-indol-3-yl)pyrimidin-5-yl)phenyl) Pivalamide], the melting point fell in the range of 139.6 to 140.3 °C. In data set [1], this compound yielded a CC50 at 48 h of 11.9 µM.

`Nc1ncc(-c2ccc(NC(=O)Cc3ccccc3)cc2)c(-c2c[nH]c3ccc(Br)cc23)n1` [A5, N-(4-(2-amino-4-(5-bromo-1H-indol-3-yl)pyrimidin-5-yl)phenyl)-2-phenylacetamide] came in with a melting point of 207.6 to 208.4 °C. It took 20.9 µM to reach half-maximal cytotoxicity in data set [1] (CC50 at 48 h).

`Nc1ncc(-c2ccc(NC(=O)c3ccccc3)cc2)c(-c2c[nH]c3ccc(Br)cc23)n1` [A6, N-(4-(2-amino-4-(5-bromo-1H-indol-3-yl)pyrimidin-5-yl)phenyl) Benzamide]: the melting point lay within 187.9 to 188.6 °C. In data set [1], this compound came in with a CC50 at 48 h of 12.5 µM.

`Nc1ncc(-c2ccc(NC(=O)c3ccccc3F)cc2)c(-c2c[nH]c3ccc(Br)cc23)n1` [A7, N-(4-(2-amino-4-(5-bromo-1H-indol-3-yl)pyrimidin-5-yl)phenyl)-2-fluorobenzamide]: the melting point lay within 159.6 to 160.4 °C. For the same compound, in data set [1], the midpoint of cytotoxicity, the CC50 at 48 h, lay at 18.1 µM.

Take `Nc1ncc(-c2ccc(NC(=O)c3cccc(F)c3)cc2)c(-c2c[nH]c3ccc(Br)cc23)n1` [A8, N-(4-(2-amino-4-(5-bromo-1H-indol-3-yl)pyrimidiN-5-yl)phenyl)-3-fluorobenzamide]: the melting point lay within 183.6 to 184.3 °C. In data set [1], the CC50 at 48 h is 6.8 µM.

As for `Nc1ncc(-c2ccc(NC(=O)c3ccc(F)cc3)cc2)c(-c2c[nH]c3ccc(Br)cc23)n1` [A9, N-(4-(2-amino-4-(5-bromo-1H-indol-3-yl)pyrimidin-5-yl)phenyl)-4-fluorobenzamide], the melting point lay within 178.6 to 179.4 °C. In data set [1], this compound displayed a CC50 at 48 h of 6 µM.

In the case of `Nc1ncc(-c2ccc(NC(=O)c3ccccc3Cl)cc2)c(-c2c[nH]c3ccc(Br)cc23)n1` [A10, N-(4-(2-amino-4-(5-bromo-1H-indol-3-yl)pyrimidin-5-yl)phenyl)-2-chlorobenzamide], the melting point lay within 211.5 to 212.4 °C. In data set [1], this compound gave a CC50 at 48 h of 18.4 µM.

Compound `Nc1ncc(-c2ccc(NC(=O)c3cccc(Cl)c3)cc2)c(-c2c[nH]c3ccc(Br)cc23)n1` [A11, N-(4-(2-amino-4-(5-bromo-1H-indol-3-yl)pyrimidin-5-yl)phenyl)-3-chlorobenzamide] yielded a melting point of 204.8 to 205.2 °C. This compound also registered a CC50 at 48 h in data set [1] of 18.5 µM.

`Nc1ncc(-c2ccc(NC(=O)c3ccc(Cl)cc3)cc2)c(-c2c[nH]c3ccc(Br)cc23)n1` [A12, N-(4-(2-amino-4-(5-bromo-1H-indol-3-yl)pyrimidin-5-yl)phenyl)-4-chlorobenzamide] yielded a melting point of 261.7 to 262.5 °C. This compound also displayed a CC50 at 48 h in data set [1] of 7.5 µM.

As for `Nc1ncc(-c2ccc(NC(=O)c3cccc(Br)c3)cc2)c(-c2c[nH]c3ccc(Br)cc23)n1` [A14, N-(4-(2-amino-4-(5-bromo-1H-indol-3-yl)pyrimidin-5-yl)phenyl)-3-bromobenzamide], the melting point is 176.6 to 177.3 °C. Moreover, in data set [1], the CC50 at 48 h was over 25 µM.
